{
  "source": "ChEMBL document CHEMBL5126582",
  "about": "“Discovery of (2-(pyrrolidin-1-yl)thieno[3,2-d]pyrimidin-4-yl)(3,4,5-trimethoxyphenyl)methanone as a novel potent tubulin depolymerizing and vascular disrupting agent” (Eur J Med Chem, 2022)",
  "key": {"HeLa [1]": {"system": "HeLa", "experiment": "Antiproliferative activity against human HeLa cells assessed as reduction in cell viability incubated for 48 hrs by MTS assay", "format": "functional, cell-based"}, "HeLa [2]": {"system": "HeLa", "experiment": "Inhibition of colony formation in human HeLa cells assessed as reduction in colony formation at 1 to 250 nM incubated for 48 hrs followed by culturing in fresh compound-free medium for 10 days by crystal violet staining based assay", "format": "functional, cell-based", "conditions": "dose 1-250 nM, DDE = dose-dependent effect"}, "HeLa [3]": {"system": "HeLa", "experiment": "Inhibition of colony formation in human HeLa cells assessed as reduction in colony formation at 250 nM incubated for 24 hrs followed by culturing in fresh compound-free medium for 10 days by crystal violet staining based assay", "format": "functional, cell-based"}, "HeLa [4]": {"system": "HeLa", "experiment": "Induction of cell cycle arrest in human HeLa cells assessed as reduction of cells at G1 phase at 100 to 2000 nM incubated for 24 to 48 hrs by […] flow cytometry", "format": "functional", "conditions": "dose 100-2000 nM, time 24-48 hrs"}, "HeLa [5]": {"system": "HeLa", "experiment": "Induction of apoptosis in human HeLa cells assessed as late apoptotic cells at 100 nM incubated for 24 hrs by annexin V FITC and propidium iodide staining based flow cytometry analysis (reference value: 0.05%)", "format": "functional"}, "HeLa [6]": {"system": "HeLa", "experiment": "Induction of apoptosis in human HeLa cells assessed as viable cells at 500 nM incubated for 24 hrs by annexin V FITC and propidium iodide staining based flow cytometry analysis (reference value: 85.7%)", "format": "functional", "conditions": "read-out: Activity"}, "HeLa [7]": {"system": "HeLa", "experiment": "Induction of apoptosis in human HeLa cells assessed as early apoptotic cells at 750 nM incubated for 24 hrs by annexin V FITC and propidium iodide staining based flow cytometry analysis (reference value: 0.12%)", "format": "functional"}, "HeLa [8]": {"system": "HeLa", "experiment": "Induction of apoptosis in human HeLa cells assessed as necrotic cells at 1 uM incubated for 24 hrs by annexin V FITC and propidium iodide staining based flow cytometry analysis (reference value: 1.14 %)", "format": "functional"}, "HeLa [9]": {"system": "HeLa", "experiment": "Induction of apoptosis in human HeLa cells assessed as late apoptotic cells at 100 nM incubated for 48 hrs by annexin V FITC and propidium iodide staining based flow cytometry analysis (reference value: 8.87%)", "format": "functional"}, "HeLa [10]": {"system": "HeLa", "experiment": "Induction of apoptosis in human HeLa cells assessed as early apoptotic cells at 500 nM incubated for 48 hrs by annexin V FITC and propidium iodide staining based flow cytometry analysis (reference value: 6.01%)", "format": "functional"}, "HeLa [11]": {"system": "HeLa", "experiment": "Induction of apoptosis in human HeLa cells assessed as late apoptotic cells at 500 nM incubated for 48 hrs by annexin V FITC and propidium iodide staining based flow cytometry analysis (reference value: 8.87%)", "format": "functional"}, "HeLa [12]": {"system": "HeLa", "experiment": "Induction of apoptosis in human HeLa cells assessed as viable cells at 750 nM incubated for 48 hrs by annexin V FITC and propidium iodide staining based flow cytometry analysis (reference value: 85.5%)", "format": "functional", "conditions": "read-out: Activity"}, "HeLa [13]": {"system": "HeLa", "experiment": "Induction of apoptosis in human HeLa cells assessed as viable cells at 100 nM incubated for 72 hrs by annexin V FITC and propidium iodide staining based flow cytometry analysis (reference value: 90.1%)", "format": "functional", "conditions": "read-out: Activity"}, "HeLa [14]": {"system": "HeLa", "experiment": "Induction of apoptosis in human HeLa cells assessed as early apoptotic cells at 100 nM incubated for 72 hrs by annexin V FITC and propidium iodide staining based flow cytometry analysis (reference value: 2.36%)", "format": "functional"}, "HeLa [15]": {"system": "HeLa", "experiment": "Induction of apoptosis in human HeLa cells assessed as late apoptotic cells at 500 nM incubated for 72 hrs by annexin V FITC and propidium iodide staining based flow cytometry analysis (reference value: 4.70%)", "format": "functional"}, "HeLa [16]": {"system": "HeLa", "experiment": "Induction of apoptosis in human HeLa cells assessed as early apoptotic cells at 750 nM incubated for 72 hrs by annexin V FITC and propidium iodide staining based flow cytometry analysis (reference value: 2.36%)", "format": "functional"}, "HeLa [17]": {"system": "HeLa", "experiment": "Induction of apoptosis in human HeLa cells assessed as late apoptotic cells at 750 nM incubated for 72 hrs by annexin V FITC and propidium iodide staining based flow cytometry analysis (reference value: 4.70%)", "format": "functional"}, "HeLa [18]": {"system": "HeLa", "experiment": "Induction of apoptosis in human HeLa cells assessed as necrotic cells at 750 nM incubated for 72 hrs by annexin V FITC and propidium iodide staining based flow cytometry analysis (reference value: 2.88 %)", "format": "functional"}, "HeLa [19]": {"system": "HeLa", "experiment": "Induction of apoptosis in human HeLa cells assessed as viable cells at 1 uM incubated for 72 hrs by annexin V FITC and propidium iodide staining based flow cytometry analysis (reference value: 90.1%)", "format": "functional", "conditions": "read-out: Activity"}, "HeLa [20]": {"system": "HeLa", "experiment": "Induction of apoptosis in human HeLa cells assessed as early apoptotic cells at 1 uM incubated for 72 hrs by annexin V FITC and propidium iodide staining based flow cytometry analysis (reference value: 2.36%)", "format": "functional"}, "HeLa [21]": {"system": "HeLa", "experiment": "Induction of apoptosis in human HeLa cells assessed as late apoptotic cells at 1 uM incubated for 72 hrs by annexin V FITC and propidium iodide staining based flow cytometry analysis (reference value: 4.70%)", "format": "functional"}, "HeLa [22]": {"system": "HeLa", "experiment": "Induction of apoptosis in human HeLa cells assessed as necrotic cells at 1 uM incubated for 72 hrs by annexin V FITC and propidium iodide staining based flow cytometry analysis (reference value: 2.88 %)", "format": "functional"}, "HeLa [23]": {"system": "HeLa", "experiment": "Induction of mitochondrial membrane potential alteration in human HeLa cells assessed as early apoptotic cells at 100 nM measured after 48 hrs by JC1 staining-based flow cytometry analysis (reference value: 9.07%)", "format": "functional"}, "HeLa [24]": {"system": "HeLa", "experiment": "Induction of mitochondrial membrane potential alteration in human HeLa cells assessed as late apoptotic cells at 100 nM measured after 48 hrs by JC1 staining-based flow cytometry analysis (reference value: 0.009%)", "format": "functional"}, "HeLa [25]": {"system": "HeLa", "experiment": "Induction of mitochondrial membrane potential alteration in human HeLa cells assessed as necrotic cells at 100 nM measured after 48 hrs by JC1 staining-based flow cytometry analysis (reference value: 0%)", "format": "functional"}, "HeLa [26]": {"system": "HeLa", "experiment": "Induction of mitochondrial membrane potential alteration in human HeLa cells assessed as early apoptotic cells at 500 nM measured after 48 hrs by JC1 staining-based flow cytometry analysis (reference value: 9.07 %)", "format": "functional"}, "HeLa [27]": {"system": "HeLa", "experiment": "Induction of mitochondrial membrane potential alteration in human HeLa cells assessed as late apoptotic cells at 500 nM measured after 48 hrs by JC1 staining-based flow cytometry analysis (reference value: 0.009%)", "format": "functional"}, "HeLa [28]": {"system": "HeLa", "experiment": "Induction of mitochondrial membrane potential alteration in human HeLa cells assessed as necrotic cells at 500 nM measured after 48 hrs by JC1 staining-based flow cytometry analysis (reference value: 0%)", "format": "functional"}, "HeLa [29]": {"system": "HeLa", "experiment": "Induction of mitochondrial membrane potential alteration in human HeLa cells assessed as late apoptotic cells at 750 nM measured after 48 hrs by JC1 staining-based flow cytometry analysis (reference value: 0.009%)", "format": "functional"}, "HeLa [30]": {"system": "HeLa", "experiment": "Induction of mitochondrial membrane potential alteration in human HeLa cells assessed as early apoptotic cells at 1 uM measured after 48 hrs by JC1 staining-based flow cytometry analysis (reference value: 9.07 %)", "format": "functional"}, "HeLa [31]": {"system": "HeLa", "experiment": "Induction of mitochondrial membrane potential alteration in human HeLa cells assessed as late apoptotic cells at 1 uM measured after 48 hrs by JC1 staining-based flow cytometry analysis (reference value: 0.009%)", "format": "functional"}, "HeLa [32]": {"system": "HeLa", "experiment": "Inhibition of cell migration in human HeLa cells at 10 to 1000 nM measured up to 24 hrs wound healing assay", "format": "functional, cell-based", "conditions": "dose 10-1000 nM, DDE = dose-dependent effect"}, "[33]": {"experiment": "Metabolic stability in rat liver microsomes assessed as intrinsic clearance incubated for 5 mins in presence of NADPH by HPLC analysis", "format": "ADME, Microsome", "conditions": "read-out: CLH"}},
  "note": "Activity calls are given as the source filed them. The rule behind the calls is not given here.",
  "data": [
    {"compound": "COc1cc(C(=O)c2nc(N3CCCC3)nc3ccsc23)cc(OC)c1OC", "values": [
      {"measurement": "IC50", "setting": "HeLa [1]", "value": 3, "unit": "nM"},
      {"measurement": "inhibition", "setting": "HeLa [2]", "value": "Dde"},
      {"measurement": "inhibition", "setting": "HeLa [3]", "value": "Active"},
      {"measurement": "Activity", "setting": "HeLa [4]", "value": "Active"},
      {"measurement": "Activity", "setting": "HeLa [5]", "value": 5.04, "unit": "%"},
      {"measurement": "viability at 0.5 µM", "setting": "HeLa [6]", "value": 80.1, "unit": "%"},
      {"measurement": "Activity", "setting": "HeLa [7]", "value": 8.59, "unit": "%"},
      {"measurement": "Activity", "setting": "HeLa [8]", "value": 4.52, "unit": "%"},
      {"measurement": "Activity", "setting": "HeLa [9]", "value": 5.18, "unit": "%"},
      {"measurement": "Activity", "setting": "HeLa [10]", "value": 4.64, "unit": "%"},
      {"measurement": "Activity", "setting": "HeLa [11]", "value": 10.8, "unit": "%"},
      {"measurement": "viability at 0.75 µM", "setting": "HeLa [12]", "value": 36.7, "unit": "%"},
      {"measurement": "viability at 0.1 µM", "setting": "HeLa [13]", "value": 85.1, "unit": "%"},
      {"measurement": "Activity", "setting": "HeLa [14]", "value": 2.65, "unit": "%"},
      {"measurement": "Activity", "setting": "HeLa [15]", "value": 14.5, "unit": "%"},
      {"measurement": "Activity", "setting": "HeLa [16]", "value": 1.24, "unit": "%"},
      {"measurement": "Activity", "setting": "HeLa [17]", "value": 21.3, "unit": "%"},
      {"measurement": "Activity", "setting": "HeLa [18]", "value": 40.8, "unit": "%"},
      {"measurement": "viability at 1 µM", "setting": "HeLa [19]", "value": 27.9, "unit": "%"},
      {"measurement": "Activity", "setting": "HeLa [20]", "value": 5.47, "unit": "%"},
      {"measurement": "Activity", "setting": "HeLa [21]", "value": 24.7, "unit": "%"},
      {"measurement": "Activity", "setting": "HeLa [22]", "value": 41.9, "unit": "%"},
      {"measurement": "Activity", "setting": "HeLa [23]", "value": 7.59, "unit": "%"},
      {"measurement": "Activity", "setting": "HeLa [24]", "value": 0.02, "unit": "%"},
      {"measurement": "Activity", "setting": "HeLa [25]", "value": 0.02, "unit": "%"},
      {"measurement": "Activity", "setting": "HeLa [26]", "value": 33.1, "unit": "%"},
      {"measurement": "Activity", "setting": "HeLa [27]", "value": 0.019, "unit": "%"},
      {"measurement": "Activity", "setting": "HeLa [28]", "value": 0.01, "unit": "%"},
      {"measurement": "Activity", "setting": "HeLa [29]", "value": 0.077, "unit": "%"},
      {"measurement": "Activity", "setting": "HeLa [30]", "value": 55.3, "unit": "%"},
      {"measurement": "Activity", "setting": "HeLa [31]", "value": 0.053, "unit": "%"},
      {"measurement": "inhibition", "setting": "HeLa [32]", "value": "Dde"},
      {"measurement": "microsomal CLint", "setting": "[33]", "value": 40.8, "unit": "µL/min/mg"}
    ]}
  ]
}
